Where a name gives a salt, the structure may show the parent alone.
System: neuropathic pain model in the sheep
Assay: Neuropathic pain model in sheep, mechanical stimulus device
Format: in vivo
Settings: for Mechanical Stimulus device: sheep Rowdy #819
Excerpt: The neuropathic pain model in the sheep is created by placing four tight ligatures around the median, radial, or ulnar nerve (or a combination thereof) with 0-chromic gut suture. This method produces a chronic painful peripheral mononeuropathy which may be related to those conditions seen in humans with causalgia and reflex sympathetic dystrophy. To date, the onset of neuropathic pain has occurred 1 to 9 days postoperatively, as evidenced by the display of painful behavior such as hyperalgesia, not bearing weight or holding the operated leg off the ground. The duration of the painful behavior lasted 16 to 62 days. […] It has been difficult to identify a segment of the median nerve that is consistently appropriate to achieve the neuropathic pain behavior. The inventors are continuing to test different segments of the median nerve and other mixed sensory/motor nerves to consistently produce this behavior. Of the five animals that developed neuropathic pain, three were treated with intrathecal morphine or midazolam as single agents.
In the sheep with neuropathic pain treated by midazolam alone, intrathecal administration of midazolam was initiated at 3 to 5 mg/day and the dose was escalated to up to 15 mg/day. […] This analgesia was documented using a mechanical stimulus device and/or behavior monitoring. The mechanical stimulus device measures pressure applied to a blunt pin against the foreleg. The pressure at which the animal lifts its leg in response to the painful stimulus is documented. In the sheep monitored by this device, administration of intrathecal midazolam allowed endurance of up to 18 Newtons of pressure (cut off to prevent tissue damage was set at 19.99 N) compared to the baseline (pretreatment) pressure endured of 9.59 N.
A mechanical stimulus device as described in Example 6, and/or behavior monitoring as described in Example 5 is used to test analgesic effect in the neuropathic pain model. To compare the effects of midazolam using the mechanical stimulus device, the data were accumulated over the testing period, and all response latencies were expressed as percentage of the maximum possible effect (MPE) where: [formula]
This test will be conducted prior to initiation of midazolam infusion and again on days 1, 3, 7, 15, 22, 29, 36, 43 during infusion. The mechanical stimulus device has been developed and validated (Nolan et al. 1987; Kyles et al., 1995) for pain testing in the sheep model.

SMILES: Cc1ncc2n1-c1ccc(Cl)cc1C(c1ccccc1F)=NC2 [Midazolam, midazolam hydrochloride]
- pressure endured (mechanical stimulus device) (Sheep #819, cut off 19.99 N, baseline (pretreatment) 9.59 N): up to 18 Newtons
- analgesia (neuropathic pain sheep, midazolam alone, 3 to 5 mg/day escalated up to 15 mg/day intrathecal): significant analgesia
- Mechanical Stimulus device (10 mg): 13.7N
- Mechanical Stimulus device (15 mg): 7.0N
